In patent EP0562731A1, “Substituted pyridinesulfonamide compounds or their salts, process for preparing the same, and herbicides containing the same” (ISHIHARA SANGYO KAISHA, Ltd., priority 1992, dated 1993):

Assays:
Assay in all cases: Test Example 1: foliar application pot test, visual growth control rating
Assay type in all cases: in vivo
Parameters in all cases: key: 1: the same as in an untreated plot; 10: perfect growth control
[1] = tested on: prickly sida (Sida spinosa); details: 1.25 g/a active ingredient, wettable powder, observed 20 to 31 days after application
From the text: (§1) 1/1,500 are [are (a) = 100 m²] pots were filled with upland farming soil, which in the pots was then sown with a variety of plants. The plants grown will be enumerated below.
(§2) When each plant reached a given growth stage (a 1.2- to 3.0-leaf stage for rice, primary leaf to a 0.7-leaf stage for soybean, 2.1- to 3.6-leaf stage for corn, cotyledon to 0.7-leaf stage for cotton, 2.0- to 3.0-leaf stage for wheat, 0.3- to 3.4-leaf stage for cocklebur, 0.3- to 1.6-leaf stage for morning glory, 0.1- to 1.3-leaf stage for prickly sida, 0.1- to 1.3-leaf stage for slender amaranth, 1.5- to 3.2-leaf stage for barnyard glass, and 1.2- to 3.0-leaf stage for large crabgrass), a predetermined amount of the herbicide of the present invention in the form of a wettable powder, weighed out, diluted with 5 ℓ/a of water and admixed with 0.2 or 0.1 vol%, based on the resulting composition, of an agricultural spreader, was foliarly applied to the plant with a small spray gun. The progress of growth of the plant was visually observed 20 to 31 days after the foliar application to evaluate the degree of growth control according to 10 ratings (1: the same as in an untreated plot - 10: perfect growth control).

[2] = tested on: slender amaranth (Amaranthus viridis); details: 1.25 g/a active ingredient, wettable powder, observed 20 to 31 days after application
From the text: as §1, §2

[3] = tested on: cocklebur (Xanthium strumarium); details: 1.25 g/a active ingredient, wettable powder, observed 20 to 31 days after application
From the text: as §1, §2

wheat (Triticum) = details: wettable powder, observed 20 to 31 days after application
From the text: as §1, §2

[4] = tested on: morning glory (Ipomoea purpurea); details: 1.25 g/a active ingredient, wettable powder, observed 20 to 31 days after application
From the text: as §1, §2

soybean (Glycine max) = details: wettable powder, observed 20 to 31 days after application
From the text: as §1, §2

[5] = tested on: large crabgrass (Digitaria adscendens); details: wettable powder, observed 20 to 31 days after application
From the text: as §1, §2

rice (Oryza sativa) = details: 1.25 g/a active ingredient, wettable powder, observed 20 to 31 days after application
From the text: as §1, §2

[6] = tested on: barnyard grass (Echinochloa crus-galli); details: 1.25 g/a active ingredient, wettable powder, observed 20 to 31 days after application
From the text: as §1, §2

corn (Zea mays) = details: 1.25 g/a active ingredient, wettable powder, observed 20 to 31 days after application
From the text: as §1, §2

SMILES	degree of growth control, SI [1]	degree of growth control, AM [2]	degree of growth control, XA [3]	degree of growth control, TR (wheat (Triticum); 1.25 g/a active ingredient)	degree of growth control, IP [4]	degree of growth control, GL (soybean (Glycine max); 1.25 g/a active ingredient)	degree of growth control, DI ([5]; 1.25 g/a active ingredient)	degree of growth control, OR (rice (Oryza sativa))	degree of growth control, EC [6]	degree of growth control, ZE (corn (Zea mays))	degree of growth control, TR (wheat (Triticum); 0.31 g/a active ingredient)	degree of growth control, GL (soybean (Glycine max); 0.31 g/a active ingredient)	degree of growth control, DI ([5]; 0.31 g/a active ingredient)
COc1nc(C)nc(NC(=O)NS(=O)(=O)c2cccc(N(CC(C)C)S(C)(=O)=O)n2)n1 [compound 33]	3	6	3	3	4	3	6	6	3	2	–	–	–
CCCS(=O)(=O)N(C)c1cccc(S(=O)(=O)NC(=O)Nc2nc(C)nc(OC)n2)n1 [compound 39]	3	9	5	3	5	4	4	3	3	3	–	–	–
CCS(=O)(=O)N(c1cccc(S(=O)(=O)NC(=O)Nc2nc(C)nc(OC)n2)n1)C(C)C [compound 6]	6	9	7	3	8	3	4	6	6	10	–	–	–
CCCCN(c1cccc(S(=O)(=O)NC(=O)Nc2nc(C)nc(OC)n2)n1)S(=O)(=O)C(C)C [Compound No. 4]	6	9	9	2	6	4	3	8	7	10	–	–	–
CCC(C)N(c1cccc(S(=O)(=O)NC(=O)Nc2nc(C)nc(OC)n2)n1)S(=O)(=O)C(C)CC (racemic) [compound 81]	2	3	9	2	6	6	3	5	6	2	–	–	–
CCS(=O)(=O)N(c1cccc(S(=O)(=O)NC(=O)Nc2nc(OC)nc(OC)n2)n1)C(C)C [compound 7]	3	9	7	2	6	3	2	3	2	10	–	–	–
CCCCN(c1cccc(S(=O)(=O)NC(=O)Nc2nc(C)nc(OC)n2)n1)S(=O)(=O)CCCC [compound 43]	3	5	6	3	3	4	6	2	3	3	–	–	–
CCCCN(c1cccc(S(=O)(=O)NC(=O)Nc2nc(C)nc(OC)n2)n1)S(C)(=O)=O [compound 32]	4	6	6	2	5	3	6	3	3	3	–	–	–
CCCN(c1cccc(S(=O)(=O)NC(=O)Nc2nc(C)nc(OC)n2)n1)S(=O)(=O)CC [Compound No. 3]	6	10	8	4	5	3	6	6	9	8	–	–	–
CCN(c1cccc(S(=O)(=O)NC(=O)Nc2nc(OC)nc(OC)n2)n1)S(=O)(=O)CC(F)(F)F [compound 92]	6	5	10	9	10	7	3	5	6	7	–	–	–
CCN(c1cccc(S(=O)(=O)NC(=O)Nc2nc(C)nc(OC)n2)n1)S(=O)(=O)CCl [compound 60]	5	9	9	2	7	4	4	6	6	5	–	–	–
CCN(c1cccc(S(=O)(=O)NC(=O)Nc2nc(C)nc(OC)n2)n1)S(=O)(=O)C(C)F (racemic) [compound 58]	–	–	–	2	–	1	7	–	–	–	2	1	7
CCCN(c1cccc(S(=O)(=O)NC(=O)Nc2nc(OC)nc(OC)n2)n1)S(=O)(=O)CC [compound 8]	3	7	6	3	4	4	5	3	5	5	–	–	–
CCN(c1cccc(S(=O)(=O)NC(=O)Nc2nc(C)nc(OC)n2)n1)S(=O)(=O)CC [compound 37]	3	9	4	1	3	2	2	2	4	3	–	–	–
